What all share (format): in vivo
One assay has as its system C57BL/6J mice. Kind of assay: The lipid-lowering effect in C57BL/6J mice (high-fat diet). The conditions noted are these: HFD C57BL/6J mice, after 21 days, six mice per group. On the procedure:
1. The Lipid-Lowering Effect in C57BL/6J Mice
8-week C57BL/6J mice are divided into standard diet (STD) group and the high-fat diet (HFD) group. In the HFD group, the Simvastatin (5 mg/kg), Sildenafil-Atorvastatinic acid complex salt, Sildenafil-Rosuvastatinic acid complex salt, Sildenafil-Simvastatinic acid complex salt (2.5 mg/kg) are separately administered orally. After 21 days, the amounts (mg/d1) of the triglyceride (TG), the total cholesterol (Tot.-C), the high density lipoprotein cholesterol (HDL-C), and the low density lipoprotein cholesterol (LDL-C) of six mice for each group are measured as shown in Tables 2.

The next assay has as its system TGF-β. Nature of the assay: Bleomycin (BM)-induced lung fibrosis in mice, TGF-β expression in tracheal irrigation solution by EIA. The conditions noted are these: 60 mg/kg BM inhalation, *P < 0.05 vs control group. On the procedure:
3. Sildenafil-Simvastatinic Acid Complex Salts Inhibit the Lung Fibrosis in Mice Induced by Bleomycin (BM) Mediated Via TGF-β Expression in Lung The increased amount of the synthetic collagen and the generation of the macrophage in alveolus may facilitate the formulation of transforming growth factor beta (TGF-β), and the expression of TGF-β is looked as a biomarker of the lung fibrosis. The simvastatin (5 mg/kg) and Sildenafil-Simvastatinic acid complex salts (2.5 mg/kg) are orally administered to the mice for inhibiting the lung fibrosis induced by TGF-β expression in tracheal irrigation solution that resulted from 60 mg/kg BM inhalation (Table 4). The state of the TGF-β expression in the irrigation solution is measured by the enzyme immunoassay (EIA).

The test system of assay [1] is male Wistar rats treated with MCT. Kind of assay: Monocrotaline (MCT)-induced pulmonary arterial hypertension in rats, pulmonary artery blood pressure. The conditions noted are these: for PABP: MCT (60 mg, intracutaneously)-treated male Wistar rats, 2.5 mg/kg/day p.o., MCT alone 25 ± 2.3, control 11 ± 1.4; for effect on pulmonary artery blood pressure (PABP), in words: MCT-treated male Wistar rats, 2.5 mg/kg orally every day. From the text: 2. The Monocrotaline (MCT)-Treated Rats Show the Decreased Pulmonary Aterial Hypertension
Pulmonary aterial hypertension in MCT-treated rats is caused on day 21 after the intracutaneously injection.

With “Sildenafil-Rosuvastatinic acid complex salt”, in the assay on C57BL/6J mice (2.5 mg/kg orally), the HDL-C came out at 103.4 ± 1.5 mg/d1, the LDL-C is recorded as 15.2 ± 1.7 mg/d1, the TG was found to be 83.2 ± 5.3 mg/d1 and the Tot.-C is on record as 131.7 ± 1.6 mg/d1.

Regarding `CCC(C)(C)C(=O)O[C@H]1C[C@@H](C)C=C2C=C[C@H](C)[C@H](CC[C@@H]3C[C@@H](O)CC(=O)O3)[C@H]21` [Simvastatin, reference compound], in the assay on C57BL/6J mice (5 mg/kg orally), the HDL-C is listed as 103.18 ± 2.5 mg/d1, the LDL-C is recorded as 15.3 ± 1.3 mg/d1, the TG amounted to 82.67 ± 6.3 mg/d1 and the Tot.-C was 133.67 ± 4.3 mg/d1. The “Changed amount of the lung TGF-β” value in the assay with TGF-β (5 mg/kg orally) is recorded as 40 ± 4.3%*.

Consider “Sildenafil-Simvastatinic acid complex salt”, for which, in the assay with C57BL/6J mice (2.5 mg/kg orally), the HDL-C amounted to 102.4 ± 2.3 mg/d1, the LDL-C is reported as 17.3 ± 1.4 mg/d1, the TG is listed as 81.2 ± 4.4 mg/d1 and the Tot.-C came out at 129.7 ± 1.4 mg/d1. Further, in assay [1], the PABP is on record as 12 ± 1.5 mmHg and the “effect on pulmonary artery blood pressure (PABP), in words” value is reported as “decreasing the pulmonary artery blood pressure”. Further, in the assay on TGF-β (2.5 mg/kg orally), the “Changed amount of the lung TGF-β” value is on record as 43 ± 1.8%*.

Regarding “Sildenafil-Atorvastatinic acid complex salt”, in the assay on C57BL/6J mice (2.5 mg/kg orally), the HDL-C amounted to 97.6 ± 2.8 mg/d1, the LDL-C was 16.8 ± 1.8 mg/d1, the TG is 79.2 ± 4.6 mg/d1 and the Tot.-C came out at 130.7 ± 1.7 mg/d1.

Consider Sildenafil-γ-Polyglutamate complex, for which, in assay [1], the PABP was determined as 11 ± 0.8 mmHg and the “effect on pulmonary artery blood pressure (PABP), in words” value is reported as “decreasing the pulmonary artery blood pressure”.

The record behind these values is patent US8497370B2, “Processes for preparing amine salts of sildenafil-analogues and use thereof” (Kaohsiung Medical University, priority 2010, dated 2013).
